Data published in patent publication US12600721B2, “TYK2 inhibitors and uses thereof” (Sudo Biosciences Limited, priority 2021, dated 2026).
pIC50: −log10 of the molar value.

Experiments:
TYK2 Pseudokinase (JH2) [1] = assay: HEK-Blue IL-23 reporter assay (SEAP) for profiling TYK2 pseudokinase (JH2) inhibition; format: cell-based; details: HEK-Blue IL-23 cells, 10 ng/mL human recombinant IL-23, SEAP reporter; read-out: IL23 IC50 (TYK2 inhibitory activity)
Description: (§1) HEK-Blue™ IL-23 and IFNα/β cells with a stably-integrated cytokine receptor and STAT3 or STAT1 express STAT-inducible secreted embryonic alkaline phosphatase (SEAP) reporter gene upon cytokine stimulation. These cells are plated in DMEM (Gibco) containing 10% heat-inactivated FBS (Gibco) and 100 U/mL PenStrep (Gibco) at 37° C. under 5% CO2 conditions for 20-22 hours. The cells are then pretreated with serially diluted test compounds for 60 min prior to stimulation with either 10 ng/mL human recombinant IL-23 (Miltenyl Biotech) or 1 ng/mL human recombinant IFNα (InvivoGen) for 22-24 hours for IL-23 or 16-18 h for IFNα. SEAP induction is measured using the QUANTI Blue™ Solution (InvivoGen) according to the manufacturer's instructions.

TYK2 Pseudokinase (JH2) [2] = assay: HEK-Blue IFNα/β reporter assay (SEAP) for profiling TYK2 pseudokinase (JH2) inhibition; format: cell-based; details: HEK-Blue IFNα/β cells, 1 ng/mL human recombinant IFNα, read-out: IFNα IC50 (TYK2 inhibitory activity)
Description: as §1

TYK2-JH1 = molecular target: T1, TYK2-JH1 (Homo sapiens, UniProt P29597); assay: HTRF-based selectivity assay, TYK2 catalytic domain; format: biochemical; details: kinase domain (JH1), 20 μM ATP
T1 construct: using a recombinant purified His or GST-tagged catalytic domain for each enzyme; made in house
T1 sequence (P29597 897-1176 limits assumed): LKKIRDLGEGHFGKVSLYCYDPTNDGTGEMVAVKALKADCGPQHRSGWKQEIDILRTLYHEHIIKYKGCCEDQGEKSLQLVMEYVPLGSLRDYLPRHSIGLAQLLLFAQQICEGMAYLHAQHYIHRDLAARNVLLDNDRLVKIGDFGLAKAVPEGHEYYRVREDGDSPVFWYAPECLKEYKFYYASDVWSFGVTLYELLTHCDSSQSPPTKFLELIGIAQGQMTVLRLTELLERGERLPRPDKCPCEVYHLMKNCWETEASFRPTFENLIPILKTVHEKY
Description: (§2) The ability of compounds to inhibit the activity of JAK1, JAK2, JAK3 and TYK2 is measured using a recombinant purified His or GST-tagged catalytic domain for each enzyme (JAK1, JAK2 and TYK2 are generated in-house; JAK3 was purchased from Carna biosciences, Cat #08-046) in an HTRF format biochemical assay. The reactions employs a commercial peptide substrate from Cisbio (Cat #62TK0PEC). The basic assay protocol is as follows: first, 2.5 μL of diluted compounds (4×) in DMSO are dispensed into a 384-well Optiplate. Next, 2.5 μL of enzyme (final concentrations for enzymes are: TYK2-700 ng/mL, JAK1-80.6 ng/ml, JAK2-2.1 ng/ml and JAK3-171.8 ng/mL) is added and incubated at RT for 5-20 min. Finally, 5 μl of mixture of 2×ATP [Final concentration 20 μM for TYK2, 21.43 μM for JAK1, 14.7 μM for JAK2 and 2.12 μM for JAK3]+2× Substrate [Final concentration 217 nM for TYK2, 454.7 nM for JAK1, 200 nM for JAK2 and 257.4 nM for JAK3] is added to 384 well Optiplate. Composition of Kinase assay buffer used in the assay is as follows: HEPES 50 mM, EGTA 1 mM, MgCl2 10 mM, DTT 2 mM, Tween-20 0.01% and water. Then the plates are shaken and then incubated at 26.5° C. for 60 min.

JAK1-JH1 = molecular target: T2, JAK1-JH1 (Homo sapiens, UniProt P23458); assay: HTRF-based selectivity assay, JAK1 catalytic domain; format: biochemical; details: kinase domain (JH1), 21.43 μM ATP
T2 construct: using a recombinant purified His or GST-tagged catalytic domain for each enzyme; made in house
T2 sequence (P23458 875-1153 limits assumed): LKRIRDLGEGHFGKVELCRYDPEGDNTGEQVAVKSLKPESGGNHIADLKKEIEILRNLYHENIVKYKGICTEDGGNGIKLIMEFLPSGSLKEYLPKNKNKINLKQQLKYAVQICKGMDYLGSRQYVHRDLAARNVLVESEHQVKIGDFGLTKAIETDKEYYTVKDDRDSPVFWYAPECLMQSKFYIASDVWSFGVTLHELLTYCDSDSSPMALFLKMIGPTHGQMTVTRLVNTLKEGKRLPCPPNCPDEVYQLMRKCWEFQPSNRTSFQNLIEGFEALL
Description: as §2

JAK2-JH1 = molecular target: T3, JAK2-JH1 (Homo sapiens, UniProt O60674); assay: HTRF-based selectivity assay, JAK2 catalytic domain; format: biochemical; details: kinase domain (JH1), 14.7 μM ATP
T3 construct: using a recombinant purified His or GST-tagged catalytic domain for each enzyme; made in house
T3 sequence (O60674 849-1124 limits assumed): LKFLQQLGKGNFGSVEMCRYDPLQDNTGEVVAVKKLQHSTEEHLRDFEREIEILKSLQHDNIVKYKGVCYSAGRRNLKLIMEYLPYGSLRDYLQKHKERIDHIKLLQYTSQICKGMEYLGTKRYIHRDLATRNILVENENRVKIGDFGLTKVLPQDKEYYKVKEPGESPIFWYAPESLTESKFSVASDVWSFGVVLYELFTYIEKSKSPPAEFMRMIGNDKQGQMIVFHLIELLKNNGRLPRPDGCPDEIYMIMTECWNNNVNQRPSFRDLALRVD
Description: as §2

JAK3-JH1 = molecular target: T4, JAK3-JH1 (Homo sapiens, UniProt P52333); assay: HTRF-based selectivity assay, JAK3 catalytic domain; format: biochemical; details: kinase domain (JH1), 2.12 μM ATP
T4 construct: using a recombinant purified His or GST-tagged catalytic domain for each enzyme; purchased Carna biosciences 08-046
T4 sequence (P52333 822-1111 limits assumed): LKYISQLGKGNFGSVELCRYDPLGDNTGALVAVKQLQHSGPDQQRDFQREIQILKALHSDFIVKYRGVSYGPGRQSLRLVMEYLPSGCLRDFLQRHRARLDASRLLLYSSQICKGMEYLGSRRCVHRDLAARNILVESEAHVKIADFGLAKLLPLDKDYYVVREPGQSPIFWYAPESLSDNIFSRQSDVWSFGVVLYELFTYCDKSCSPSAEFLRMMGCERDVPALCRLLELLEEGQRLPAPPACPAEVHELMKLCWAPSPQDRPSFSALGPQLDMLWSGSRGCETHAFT
Description: as §2

[3] = system: HEK-Blue IL-2 reporter cells; assay: HEK-Blue IL-2 reporter assay (SEAP) for determining selectivity; format: cell-based; details: HEK-Blue IL-2 cells, 4 ng/ml human recombinant IL-2, SEAP reporter
Description: (§3) HEK-Blue™ IL-2 and IFNγ reporter cells with a stably-integrated cytokine receptor and STAT5 or STAT1 express STAT-inducible secreted embryonic alkaline phosphatase (SEAP) reporter gene upon cytokine stimulation. These cells were plated in DMEM (Gibco) containing 10% heat-inactivated FBS (Gibco) and 100 U/mL PenStrep (Gibco) at 37° C. under 5% CO2 conditions for 20-22 hours. The cells were then pretreated with serially diluted test compounds for 60 min prior to stimulation with either 4 ng/ml human recombinant IL-2 (Miltenyl Biotech) or 50 ng/ml human recombinant IFNγ (InvivoGen) for 24 hours. SEAP induction was measured using the QUANTI-Blue™ Solution (InvivoGen) according to the manufacturer's instructions.

[4] = system: HEK-Blue IFNγ reporter cells; assay: HEK-Blue IFNγ reporter assay (SEAP) for determining selectivity; format: cell-based; details: 50 ng/ml human recombinant IFNγ, read-out: IFN-γ IC50 (SEAP selectivity)
Description: as §3

With `[2H]C([2H])([2H])NC(=O)c1nnc(NC(=O)C2CC2)cc1Nc1cccc2c1N(C)Cc1cc(F)cnc1-2` [Compound 7, 6-(cyclopropanecarboxamido)-4-((3-fluoro-6-methyl-5,6-dihydrobenzo[h][1,6]naphthyridin-7-yl)amino)-N-(methyl-d3)pyridazine-3-carboxamide] as the molecule, how does the pIC50 (TYK2 Pseudokinase (JH2) [1]) read?
Its pIC50 is > 7.52.

What about the pIC50 (TYK2 Pseudokinase (JH2) [2]) of the same molecule?
The pIC50 was 6.52 to 7.52.

What about the pIC50 (TYK2-JH1) of the same molecule?
Its pIC50 is < 6.00.

What about the pIC50 (JAK1-JH1) of the same molecule?
The pIC50 was < 6.00.

And the pIC50 (JAK2-JH1)?
Its pIC50 is < 6.00.

What about the pIC50 (JAK3-JH1) of the same molecule?
Its pIC50 is < 6.00.

And the pIC50 [3]?
The pIC50 was 6.00 to 6.52.

What about the pIC50 [4] of the same molecule?
The pIC50 was 6.52 to 7.52.

How did the pIC50 (TYK2 Pseudokinase (JH2) [1]) turn out when `[2H]C([2H])([2H])NC(=O)c1cnc(NC(=O)C2CC2)cc1Nc1cccc2c1N(C)Cc1cccnc1-2` [Compound 3, 6-(cyclopropanecarboxamido)-N-(methyl-d3)-4-((6-methyl-5,6-dihydrobenzo[h][1,6]naphthyridin-7-yl)amino)nicotinamide] was run?
Its pIC50 is > 7.52.

What about the pIC50 (TYK2 Pseudokinase (JH2) [2]) of the same molecule?
Its pIC50 is > 7.52.

And the pIC50 (TYK2-JH1)?
Its pIC50 is < 6.00.

And the pIC50 (JAK1-JH1)?
The pIC50 was < 6.00.

What about the pIC50 (JAK2-JH1) of the same molecule?
The pIC50 was < 6.00.

And the pIC50 (JAK3-JH1)?
The pIC50 was < 6.00.

What about the pIC50 [3] of the same molecule?
Its pIC50 is < 6.00.

What about the pIC50 [4] of the same molecule?
Its pIC50 is < 6.00.

With `[2H]C([2H])([2H])NC(=O)c1nnc(NC(=O)C2CC2)cc1Nc1cccc2c1N(C)Cc1cccnc1-2` [Compound 1, 6-(cyclopropanecarboxamido)-N-(methyl-d3)-4-((6-methyl-5,6-dihydrobenzo[h][1,6]naphthyridin-7-yl)amino)pyridazine-3-carboxamide] as the molecule, how does the pIC50 (TYK2 Pseudokinase (JH2) [1]) read?
The pIC50 was > 7.52.

And the pIC50 (TYK2 Pseudokinase (JH2) [2])?
Its pIC50 is > 7.52.

What about the pIC50 (TYK2-JH1) of the same molecule?
The pIC50 was < 6.00.

And the pIC50 (JAK1-JH1)?
Its pIC50 is < 6.00.

What about the pIC50 (JAK2-JH1) of the same molecule?
The pIC50 was < 6.00.

What about the pIC50 (JAK3-JH1) of the same molecule?
The pIC50 was < 6.00.

What about the pIC50 [3] of the same molecule?
The pIC50 was < 6.00.

What about the pIC50 [4] of the same molecule?
Its pIC50 is < 6.00.

With `[2H]C([2H])([2H])NC(=O)c1cnc(NC(=O)C2CC2)cc1Nc1cccc2c1N(C)Cc1cncnc1-2` [Compound 4, 6-(cyclopropanecarboxamido)-N-(methyl-d3)-4-((6-methyl-5,6-dihydropyrimido[5,4-c]quinolin-7-yl)amino)nicotinamide] as the molecule, how does the pIC50 (TYK2 Pseudokinase (JH2) [1]) read?
Its pIC50 is > 7.52.

What about the pIC50 (TYK2 Pseudokinase (JH2) [2]) of the same molecule?
The pIC50 was > 7.52.

What about the pIC50 (TYK2-JH1) of the same molecule?
Its pIC50 is < 6.00.

What about the pIC50 (JAK1-JH1) of the same molecule?
The pIC50 was 6.00 to 6.52.

What about the pIC50 (JAK2-JH1) of the same molecule?
The pIC50 was < 6.00.

And the pIC50 (JAK3-JH1)?
The pIC50 was < 6.00.

What about the pIC50 [3] of the same molecule?
The pIC50 was < 6.00.

What about the pIC50 [4] of the same molecule?
The pIC50 was < 6.00.

How did the pIC50 (TYK2 Pseudokinase (JH2) [1]) turn out when `[2H]C([2H])([2H])NC(=O)c1nnc(NC(=O)C2CC2)cc1Nc1cccc2c1N(C)Cc1nccnc1-2` [Compound 16, 6-(cyclopropanecarboxamido)-N-(methyl-d3)-4-((6-methyl-5,6-dihydropyrazino[2,3-c]quinolin-7-yl)amino)pyridazine-3-carboxamide] was run?
The pIC50 was > 7.52.

And the pIC50 (TYK2 Pseudokinase (JH2) [2])?
The pIC50 was > 7.52.

And the pIC50 (TYK2-JH1)?
Its pIC50 is < 6.00.

What about the pIC50 (JAK1-JH1) of the same molecule?
Its pIC50 is < 6.00.

And the pIC50 (JAK2-JH1)?
The pIC50 was < 6.00.

And the pIC50 (JAK3-JH1)?
The pIC50 was < 6.00.

What about the pIC50 [3] of the same molecule?
Its pIC50 is < 6.00.

And the pIC50 [4]?
Its pIC50 is 6.52 to 7.52.

How did the pIC50 (TYK2 Pseudokinase (JH2) [1]) turn out when `[2H]C([2H])([2H])NC(=O)c1cnc(NC(=O)C2CC2)cc1Nc1cccc2c1N(C)Cc1cc(F)cnc1-2` [Compound 5, 6-(cyclopropanecarboxamido)-4-((3-fluoro-6-methyl-5,6-dihydrobenzo[h][1,6]naphthyridin-7-yl)amino)-N-(methyl-d3)nicotinamide] was run?
The pIC50 was > 7.52.

What about the pIC50 (TYK2 Pseudokinase (JH2) [2]) of the same molecule?
The pIC50 was > 7.52.

What about the pIC50 (TYK2-JH1) of the same molecule?
Its pIC50 is < 6.00.

And the pIC50 (JAK1-JH1)?
Its pIC50 is < 6.00.

And the pIC50 (JAK2-JH1)?
The pIC50 was < 6.00.

What about the pIC50 (JAK3-JH1) of the same molecule?
Its pIC50 is < 6.00.

What about the pIC50 [3] of the same molecule?
The pIC50 was < 6.00.

What about the pIC50 [4] of the same molecule?
Its pIC50 is < 6.00.

Which results are given for `[2H]C([2H])([2H])NC(=O)c1nnc(NC(=O)C2CC2)cc1Nc1cccc2c1N(C)Cc1cnn(C)c(=O)c1-2` [Compound 27, 6-(cyclopropanecarboxamido)-4-((2,6-dimethyl-1-oxo-1,2,5,6-tetrahydropyridazino[4,5-c]quinolin-7-yl)amino)-N-(methyl-d3)pyridazine-3-carboxamide]?
pIC50 (TYK2 Pseudokinase (JH2) [1]): > 7.52; pIC50 (TYK2 Pseudokinase (JH2) [2]): > 7.52; pIC50 (TYK2-JH1): < 6.00; pIC50 (JAK1-JH1): < 6.00; pIC50 (JAK2-JH1): < 6.00; pIC50 (JAK3-JH1): < 6.00; pIC50 [3]: 6.00 to 6.52; pIC50 [4]: 6.52 to 7.52

How did the pIC50 (TYK2 Pseudokinase (JH2) [1]) turn out when `[2H]C([2H])([2H])NC(=O)c1nnc(NC(=O)C2CC2)cc1Nc1cccc2c1N(C)Cc1cncnc1-2` [Compound 6, 6-(cyclopropanecarboxamido)-N-(methyl-d3)-4-((6-methyl-5,6-dihydropyrimido[5,4-c]quinolin-7-yl)amino)pyridazine-3-carboxamide] was run?
The pIC50 was > 7.52.

What about the pIC50 (TYK2 Pseudokinase (JH2) [2]) of the same molecule?
The pIC50 was > 7.52.

What about the pIC50 (TYK2-JH1) of the same molecule?
Its pIC50 is < 6.00.

What about the pIC50 (JAK1-JH1) of the same molecule?
Its pIC50 is 6.00 to 6.52.

What about the pIC50 (JAK2-JH1) of the same molecule?
Its pIC50 is < 6.00.

And the pIC50 (JAK3-JH1)?
Its pIC50 is < 6.00.

And the pIC50 [3]?
Its pIC50 is < 6.00.

And the pIC50 [4]?
Its pIC50 is 6.52 to 7.52.

What does the source list for `[2H]C([2H])([2H])NC(=O)c1cnc(NC(=O)C2CC2)cc1Nc1cccc2c1N(C([2H])([2H])[2H])Cc1nccnc1-2` [Compound 17, 6-(cyclopropanecarboxamido)-N-(methyl-d3)-4-((6-(methyl-d3)-5,6-dihydropyrazino[2,3-c]quinolin-7-yl)amino)nicotinamide]?
pIC50 (TYK2 Pseudokinase (JH2) [1]): > 7.52; pIC50 (TYK2 Pseudokinase (JH2) [2]): > 7.52; pIC50 (TYK2-JH1): < 6.00; pIC50 (JAK1-JH1): < 6.00; pIC50 (JAK2-JH1): < 6.00; pIC50 (JAK3-JH1): < 6.00; pIC50 [3]: < 6.00; pIC50 [4]: 6.52 to 7.52
